{"source": "patent EP0532716B1", "about": "“NEW […] WITH IMUNOMODULATING ACTIVITY AND PREPARATION THEREOF” (INSTITUTO […] T[…] NAVARRA, S.A., priority 1990, dated 1992)", "format_in_all_cases": "cell-based", "key": {"lymphomononuclear cells": {"tested_on": "lymphomononuclear cells", "experiment": "Phenotypes of lymphomononuclear cells after peptide activation (fluorescein labeled antibodies, automated flow cytometry)", "details": "20 micrograms of peptide, 4 days, three healthy donors, Mean ± Standard error", "description": "(§1) Peripheral blood mononuclear cells from healthy donors were obtained by leukapheresis, processing 5 to 10 liters of whole blood, using a Fenwall CS-3000 continuous-flow cell separator (Fenwall Laboratories, Deerfield, Illinois, USA). Vascular access was obtained with a double lumen central venous catheter.\n(§2) Separated lymphomononuclear cells are washed, counted and resuspended at a concentration of 2x10^6 per ml in RPMI-1640 medium containing 10 units of penicillin per ml, 200 µg of gentamycin per ml, 2mM of glutamine per ml and 2,5% of autologous serum in a PL-732 culture bag (Fenwall Laboratories, Deerfield, Illinois, USA).\n(§3) The incubation medium contained 20 micrograms of the peptide being studied. • Peptide 1 (Peptide of Example 1). • Peptide 2 (Peptide of Example 2). • Peptide 3 (Peptide of Example 3). • Peptide 4 (Peptide of Example 4). Control Peptide (Ala-Asp-Ala-Gln-Gln-Asn-Lys-Phe-Asn-Lys-Asp-Gln-Gln-Ser-Val. In this pentadecapeptide Proline is absent. This control peptide has in common with the peptides object the invention only aa11=Asp).\n(§4) The cells are cultured for 4 days in a moist-air incubator at 37^ºC, 5% CO2 and 21% O2, One ml sample is drawn daily for microbiological studies.\n(§5) Changes in the cytotoxic ability of lymphomononuclear cells before and after peptide activation are measured with the ^51Cr release assay, using K562 and Daudi target cells (Table I). Phenotypic changes of lymphomononuclear cells before and after peptide activation are also assessed with fluorescein labeled […] antibodies and automated flow cytometry (Table II). It is well known that lymphomononuclear cells are very heterogeneous, but the presence of surface markers (CD) allows the description of their phenotypes (Weissman IL, Fathman CG, J Exp Med (1973) 137:504; Small M, Herzenberg CA, Weissman IL, Cell Immunol (1975) 15:109)."}, "Daudi target cells": {"tested_on": "Daudi target cells", "experiment": "51Cr release assay: cytotoxic activity of peptide-activated lymphomononuclear cells against Daudi target cells", "details": "lymphomononuclear cells from three healthy donors, cultured 4 days with 20 micrograms of peptide; Mean ± Standard error", "text": "(§6) Generation of cells with cytotoxic activity towards NK sensitive and NK resistant target cells.\nas §1, §2\nas §3, with “[…].” for “Control Peptide (Ala-Asp-Ala-Gln-Gln-Asn-Lys-Phe-Asn-Lys-Asp-Gln-Gln-Ser-Val.”\nas §4, §5"}, "K562 target cells": {"tested_on": "K562 target cells", "experiment": "51Cr release assay: cytotoxic activity of peptide-activated lymphomononuclear cells against K562 target cells", "details": "lymphomononuclear cells from three healthy donors, cultured 4 days with 20 micrograms of peptide; Mean ± Standard error", "text": "as §6, §1, §2\nas §3, with “[…].” for “Control Peptide (Ala-Asp-Ala-Gln-Gln-Asn-Lys-Phe-Asn-Lys-Asp-Gln-Gln-Ser-Val.”\nas §4, §5"}}, "note": "Ends that are not written are not given here.", "data": [{"compound": "CC[C@H](C)[C@H](NC(=O)[C@H](CCC(=O)O)NC(=O)[C@H](CCCCN)NC(=O)[C@H](CO)NC(=O)[C@@H](NC(=O)[C@H](CO)NC(=O)[C@@H]1CCCN1C(=O)[C@H](CC(=O)O)NC(=O)[C@H](CC(=O)O)NC(=O)[C@H](CCCCN)NC(=O)[C@H](CC(C)C)NC(=O)[C@@H](N)CO)C(C)C)C(=O)N[C@@H](CC(C)C)C(=O)N[C@@H](C)C(=O)N[C@H](C(=O)O)C(C)C", "note": "[Peptide 2]", "values": [{"measurement": "CELLS EXPRESSING SURFACE MARKERS (%) CD3", "setting": "lymphomononuclear cells", "value": "58 ± 2", "unit": "%"}, {"measurement": "CELLS EXPRESSING SURFACE MARKERS (%) CD8", "setting": "lymphomononuclear cells", "value": "18 ± 2", "unit": "%"}, {"measurement": "CELLS EXPRESSING SURFACE MARKERS (%) CD11b", "setting": "lymphomononuclear cells", "value": "24 ± 3", "unit": "%"}, {"measurement": "CELLS EXPRESSING SURFACE MARKERS (%) CD14", "setting": "lymphomononuclear cells", "value": "18 ± 3", "unit": "%"}, {"measurement": "CELLS EXPRESSING SURFACE MARKERS (%) CD16", "setting": "lymphomononuclear cells", "value": "22 ± 6", "unit": "%"}, {"measurement": "CELLS EXPRESSING SURFACE MARKERS (%) CD56", "setting": "lymphomononuclear cells", "value": "17 ± 5", "unit": "%"}, {"measurement": "CYTOTOXIC ACTIVITY (%) DAUDI", "setting": "Daudi target cells", "value": "62 ± 8", "unit": "%"}, {"measurement": "CYTOTOXIC ACTIVITY (%) K562", "setting": "K562 target cells", "value": "62 ± 7", "unit": "%"}]}, {"compound": "CC(C)[C@H](NC(=O)[C@H](CO)NC(=O)[C@H](CCC(N)=O)NC(=O)[C@H](CCC(N)=O)NC(=O)[C@H](CC(=O)O)NC(=O)[C@H](CCCCN)NC(=O)[C@H](CC(N)=O)NC(=O)[C@H](Cc1ccccc1)NC(=O)[C@H](CCCCN)NC(=O)[C@H](CC(N)=O)NC(=O)[C@H](CCC(N)=O)NC(=O)[C@H](CCC(N)=O)NC(=O)[C@H](C)NC(=O)[C@H](CC(=O)O)NC(=O)[C@H](C)N)C(=O)O", "note": "[Control Peptide, Ala-Asp-Ala-Gln-Gln-Asn-Lys-Phe-Asn-Lys-Asp-Gln-Gln-Ser-Val, reference compound]", "values": [{"measurement": "CYTOTOXIC ACTIVITY (%) DAUDI", "setting": "Daudi target cells", "value": "10 ± 4", "unit": "%"}, {"measurement": "CYTOTOXIC ACTIVITY (%) K562", "setting": "K562 target cells", "value": "12 ± 8", "unit": "%"}]}, {"compound": "EILNMPNLNEEQRNV [Peptide 3]", "values": [{"measurement": "CELLS EXPRESSING SURFACE MARKERS (%) CD3", "setting": "lymphomononuclear cells", "value": "59 ± 3", "unit": "%"}, {"measurement": "CELLS EXPRESSING SURFACE MARKERS (%) CD8", "setting": "lymphomononuclear cells", "value": "17 ± 2", "unit": "%"}, {"measurement": "CELLS EXPRESSING SURFACE MARKERS (%) CD11b", "setting": "lymphomononuclear cells", "value": "23 ± 4", "unit": "%"}, {"measurement": "CELLS EXPRESSING SURFACE MARKERS (%) CD14", "setting": "lymphomononuclear cells", "value": "18 ± 3", "unit": "%"}, {"measurement": "CELLS EXPRESSING SURFACE MARKERS (%) CD16", "setting": "lymphomononuclear cells", "value": "21 ± 5", "unit": "%"}, {"measurement": "CELLS EXPRESSING SURFACE MARKERS (%) CD56", "setting": "lymphomononuclear cells", "value": "18 ± 5", "unit": "%"}, {"measurement": "CYTOTOXIC ACTIVITY (%) DAUDI", "setting": "Daudi target cells", "value": "58 ± 9", "unit": "%"}, {"measurement": "CYTOTOXIC ACTIVITY (%) K562", "setting": "K562 target cells", "value": "59 ± 9", "unit": "%"}]}, {"compound": "CC[C@H](C)[C@H](NC(=O)[C@H](CCC(=O)O)NC(=O)[C@H](CCCCN)NC(=O)[C@H](CO)NC(=O)[C@@H](NC(=O)[C@H](CO)NC(=O)[C@@H]1CCCN1C(=O)[C@H](CC(=O)O)NC(=O)[C@H](CC(=O)O)NC(=O)[C@H](CCCCN)NC(=O)[C@H](CC(C)C)NC(=O)[C@H](CO)NC(=O)[C@H](CCC(N)=O)NC(=O)[C@@H](NC(=O)[C@H](Cc1ccccc1)NC(=O)CNC(=O)[C@@H](N)CC(N)=O)[C@@H](C)CC)C(C)C)C(=O)N[C@@H](CC(C)C)C(=O)N[C@@H](C)C(=O)N[C@@H](CCC(=O)O)C(=O)N[C@@H](C)C(=O)N[C@@H](CCCCN)C(=O)N[C@H](C(=O)O)C(C)C", "note": "[Peptide 4]", "values": [{"measurement": "CYTOTOXIC ACTIVITY (%) DAUDI", "setting": "Daudi target cells", "value": "56 ± 6", "unit": "%"}, {"measurement": "CYTOTOXIC ACTIVITY (%) K562", "setting": "K562 target cells", "value": "58 ± 7", "unit": "%"}]}, {"compound": "NVLGAPKKLNESQAV [Peptide 1]", "values": [{"measurement": "CELLS EXPRESSING SURFACE MARKERS (%) CD3", "setting": "lymphomononuclear cells", "value": "60 ± 1", "unit": "%"}, {"measurement": "CELLS EXPRESSING SURFACE MARKERS (%) CD8", "setting": "lymphomononuclear cells", "value": "17 ± 1", "unit": "%"}, {"measurement": "CELLS EXPRESSING SURFACE MARKERS (%) CD11b", "setting": "lymphomononuclear cells", "value": "23 ± 5", "unit": "%"}, {"measurement": "CELLS EXPRESSING SURFACE MARKERS (%) CD14", "setting": "lymphomononuclear cells", "value": "17 ± 4", "unit": "%"}, {"measurement": "CELLS EXPRESSING SURFACE MARKERS (%) CD16", "setting": "lymphomononuclear cells", "value": "22 ± 7", "unit": "%"}, {"measurement": "CELLS EXPRESSING SURFACE MARKERS (%) CD56", "setting": "lymphomononuclear cells", "value": "18 ± 6", "unit": "%"}, {"measurement": "CYTOTOXIC ACTIVITY (%) DAUDI", "setting": "Daudi target cells", "value": "68 ± 6", "unit": "%"}, {"measurement": "CYTOTOXIC ACTIVITY (%) K562", "setting": "K562 target cells", "value": "63 ± 8", "unit": "%"}]}]}
